According to ChEMBL document CHEMBL1132504, “Nucleosides and nucleotides. 183. Synthesis of 4'alpha-branched thymidines as a new type of antiviral agent” (Bioorg Med Chem Lett, 1999):

What was measured:
[1] = tested on: Human immunodeficiency virus 1; assay: Antiviral activity against HIV-1 (human immunodeficiency virus type 1); type: functional, organism-based
[2] = Cytotoxicity against HIV-1 (human immunodeficiency virus type 1); type: functional; conditions: Human immunodeficiency virus 1
[3] = Cytotoxicity against HSV-1 (herpes simplex virus); type: functional; conditions: Human alphaherpesvirus 1
Human alphaherpesvirus 1 = assay: Antiviral activity against HSV-1 (herpes simplex virus); type: functional, organism-based

SMILES | EC50 [1] | CC50 [2] | CC50 [3] | EC50 (Human alphaherpesvirus 1)
C#C[C@]1(CO)O[C@@H](n2cc(C)c(=O)[nH]c2=O)C[C@@H]1O | 0.83 µM | > 100 µM | > 100 µM | 6.8 µM
CC[C@]1(CO)O[C@@H](n2cc(C)c(=O)[nH]c2=O)C[C@@H]1O | 16.1 µM | > 100 µM | > 100 µM | 7.4 µM
Cc1cn([C@H]2C[C@H](O)[C@](CO)(CCO)O2)c(=O)[nH]c1=O | > 4.7 µM | 4.7 µM | > 100 µM | > 100 µM
Cc1cn([C@H]2C[C@@H]3OCC[C@]3(CO)O2)c(=O)[nH]c1=O | > 100 µM | > 100 µM | > 100 µM | > 100 µM
C=C[C@]1(CO)O[C@@H](n2cc(C)c(=O)[nH]c2=O)C[C@@H]1O | 6.1 µM | > 100 µM | > 100 µM | 1.9 µM
Nc1nc2c(ncn2COCCO)c(=O)[nH]1 [ACYCLOVIR] |  |  | > 100 µM | 
Cc1cn([C@H]2C[C@H](N=[N+]=[N-])[C@@H](CO)O2)c(=O)[nH]c1=O [ZIDOVUDINE] | 0.0017 µM | 16.5 µM |  | 
